Data: patent US9556190B2, “Piperidinyloxy lactone orexin receptor antagonists” (MERCK SHARP & DOHME CORP., priority 2013, dated 2017)

Assays:
[1] = biological target: human orexin-2 receptor (Homo sapiens (Human), UniProt O43614); assay: FLIPR Ca2+ Flux Assay, CHO cells expressing orexin-2 receptor; format: cell-based; settings: 70 pM Ala-6,12 orexin-A agonist, read-out: hOX2R FLIPR IC50
Procedure: The utility of the compounds in accordance with the present invention as orexin receptor OX1R and/or OX2R antagonists may be readily determined without undue experimentation by methodology well known in the art, including the “FLIPR Ca^2+ Flux Assay” (Okumura et al., Biochem. Biophys. Res. Comm. 280:976-981, 2001). In a typical experiment the OX1 and OX2 receptor antagonistic activity of the compounds of the present invention was determined in accordance with the following experimental method. For intracellular calcium measurements, Chinese hamster ovary (CHO) cells expressing the rat orexin-1 receptor or the human orexin-2 receptor, are grown in Iscove's modified DMEM containing 2 mM L-glutamine, […], 1% hypoxanthine-thymidine supplement, 100 U/ml penicillin, 100 μg/ml streptomycin and 10% heat-inactivated fetal calf serum (FCS). The cells are seeded at 20,000 cells/well into Becton-Dickinson black 384-well clear bottom sterile plates coated with poly-D-lysine. All reagents were from GIBCO-Invitrogen Corp. The seeded plates are incubated overnight at 37° C. and 5% CO2. Ala-6,12 human orexin-A as the agonist is prepared as a 1 mM stock solution in 1% bovine serum albumin (BSA) and diluted in assay buffer (HBSS containing 20 mM HEPES, 0.1% BSA and 2.5 mM probenecid, pH7.4) for use in the assay at a final concentration of 70 pM. Test compounds are prepared as 10 mM stock solution in DMSO, then diluted in 384-well plates, first in DMSO, then assay buffer. On the day of the assay, cells are washed 3 times with 100 μl assay buffer and then incubated for 60 min (37° C., 5% CO2) in 60 μl assay buffer containing 1 μM Fluo-4AM ester, 0.02% pluronic acid, and 1% BSA. The dye loading solution is then aspirated and cells are washed 3 times with 100 μl assay buffer. 30 μl of that same buffer is left in each well. Within the Fluorescent Imaging Plate Reader (FLIPR, Molecular Devices), test compounds are added to the plate in a volume of 25 μl, incubated for 5 min and finally 25 μl of agonist is added. Fluorescence is measured for each well at 1 second intervals for 5 minutes and the height of each fluorescence peak is compared to the height of the fluorescence peak induced by 70 pM Ala-6,12 orexin-A with buffer in place of antagonist. For each antagonist, IC50 value (the concentration of compound needed to inhibit 50% of the agonist response) is determined. Alternatively, compound potency can be assessed by a radioligand binding assay (described in Bergman et. al. Bioorg. Med. Chem. Lett. 2008, 18, 1425-1430) in which the inhibition constant (Ki) is determined in membranes prepared from CHO cells expressing either the OX1 or OX2 receptor. The intrinsic orexin receptor antagonist activity of a compound which may be used in the present invention may be determined by these assays.

[2] = biological target: hOX1R (Homo sapiens, UniProt O43613); assay: FLIPR Ca2+ Flux Assay, CHO cells expressing orexin-1 receptor; format: cell-based; settings: 70 pM Ala-6,12 orexin-A agonist

Sequence of human orexin-2 receptor (O43614 whole entry): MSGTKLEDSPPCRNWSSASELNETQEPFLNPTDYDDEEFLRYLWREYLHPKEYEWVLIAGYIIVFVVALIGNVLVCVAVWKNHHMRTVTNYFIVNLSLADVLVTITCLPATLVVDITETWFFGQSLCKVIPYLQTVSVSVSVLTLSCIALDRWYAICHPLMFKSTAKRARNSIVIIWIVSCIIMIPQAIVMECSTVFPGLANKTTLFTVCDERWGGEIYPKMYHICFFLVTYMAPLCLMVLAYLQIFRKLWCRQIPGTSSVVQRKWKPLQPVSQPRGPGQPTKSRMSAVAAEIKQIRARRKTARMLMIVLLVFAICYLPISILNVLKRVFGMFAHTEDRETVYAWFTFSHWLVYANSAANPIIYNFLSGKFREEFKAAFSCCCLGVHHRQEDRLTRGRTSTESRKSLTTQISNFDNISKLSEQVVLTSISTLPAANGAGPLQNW

| SMILES | IC50 [1] | IC50 [2] |
| --- | --- | --- |
| C[C@@H]1CC[C@@H](Nc2nccc3c2C(=O)OC3(C)C)CN1C(=O)c1ccsc1-c1ncccn1 [Example 44, 1,1-Dimethyl-4-({(3R,6R)-6-methyl-1-[(2-pyrimidin-2-ylthiophen-3-yl)carbonyl]piperidin-3-yl}amino)furo[3,4-c]pyridin-3(1H)-one] | 28 nM | 1 µM |
| C[C@@H]1OC(=O)c2c1ccnc2N[C@@H]1CC[C@@H](C)N(C(=O)c2ccccc2-n2nccn2)C1 [Example 46, (1S)-1-methyl-4-{[(3R,6R)-6-methyl-1-{[2-(2H-1,2,3-triazol-2-yl)phenyl]carbonyl}piperidin-3-yl]amino}furo[3,4-c]pyridin-3(1H)-one] | 28 nM | ≥ 10 µM |
| COc1ccc(C(=O)N2C[C@H](Oc3nccc4c3C(=O)OC4(C)C)CC[C@H]2C)c(-n2nccn2)n1 [Example 12, 4-{[(3R,6R)-1-{[6-methoxy-2-(2H-1,2,3-triazol-2-yl)pyridin-3-yl]carbonyl}-6-methylpiperidin-3-yl]oxy}-1,1-dimethylfuro[3,4-c]pyridin-3(1H)-one] | 195 nM | 10 µM |
| C[C@@H]1CC[C@@H](Oc2nccc3c2C(=O)OC3(C)C)CN1C(=O)c1ccc(Cl)cc1-n1nccn1 [Example 9, 4-{[(3R,6R)-1-{[4-chloro-2-(2H-1,2,3-triazol-2-yl)phenyl]carbonyl}-6-methylpiperidin-3-yl]oxy}-1,1-dimethylfuro[3,4-c]pyridin-3(1H)-one] | 54 nM | 3.74 µM |
| C[C@@H]1CC[C@@H](Oc2nccc3c2C(=O)OC3(C)C)CN1C(=O)c1cc(Cl)ccc1-n1nccn1 [Example 3, 4-{[(3R,6R)-1-{[5-chloro-2-(2H-1,2,3-triazol-2-yl)phenyl]carbonyl}-6-methylpiperidin-3-yl]oxy}-1,1-dimethylfuro[3,4-c]pyridin-3(1H)-one] | 42 nM | 3.74 µM |
| C[C@@H]1CC[C@@H](Oc2nccc3c2C(=O)OC3(C)C)CN1C(=O)c1ccc(F)cc1-c1ncccn1 [Example 23, 4-({(3R,6R)-1-[(4-fluoro-2-pyrimidin-2-ylphenyl)carbonyl]-6-methylpiperidin-3-yl}oxy)-1,1-dimethylfuro[3,4-c]pyridin-3(1H)-one] | 420 nM | 10 µM |
| C[C@@H]1CC[C@@H](Oc2nccc3c2C(=O)OC3(C)C)CN1C(=O)c1cccc(F)c1-c1ncccn1 [Example 27, 4-({(3R,6R)-1-[(3-fluoro-2-pyrimidin-2-ylphenyl)carbonyl]-6-methylpiperidin-3-yl}oxy)-1,1-dimethylfuro[3,4-c]pyridin-3(1H)-one] | 139 nM | 10 µM |
| C[C@@H]1CC[C@@H](Oc2nccc3c2COC3=O)CN1C(=O)c1ccccc1CS(C)(=O)=O [Example 33, 4-{[(3R,6R)-6-methyl-1-({2-[(methyl-sulfonyl)methyl]-phenyl}carbonyl)-piperidin-3-yl]oxy}furo[3,4-c]pyridin-1(3H)-one] | 20 nM | ≥ 10 µM |
| C[C@@H]1CC[C@@H](Nc2nccc3c2C(=O)OC3(C)C)CN1C(=O)c1ccccc1-n1ncnn1 [Example 41, 1,1-Dimethyl-4-{[(3R,6R)-6-methyl-1-{[2-(2H-tetrazol-2-yl)phenyl]carbonyl}piperidin-3-yl]amino}furo[3,4-c]pyridin-3(1H)-one] | 15 nM | 10 µM |
| C[C@@H]1CC[C@@H](Oc2nccc3c2C(=O)OC3(C)C)CN1C(=O)c1cccc(F)c1-n1nccn1 [Example 7, 4-{[(3R,6R)-1-{[3-fluoro-2-(2H-1,2,3-triazol-2-yl)phenyl]carbonyl}-6-methylpiperidin-3-yl]oxy}-1,1-dimethylfuro[3,4-c]pyridin-3(1H)-one] | 132 nM | 10 µM |
| C[C@@H]1CC[C@@H](Oc2nccc3c2COC3=O)CN1C(=O)c1cscc1-c1ncccn1 [Example 35, 4-({(3R,6R)-6-methyl-1-[(4-pyrimidin-2-ylthiophen-3-yl)carbonyl]piperidin-3-yl}oxy)furo[3,4-c]pyridin-1(3H)-one] | 20 nM | 10 µM |
| C[C@@H]1CC[C@@H](Oc2nccc3c2COC3=O)CN1C(=O)c1ccc(F)cc1-n1nccn1 [Example 32, 4-{[(3R,6R)-1-{[4-fluoro-2-(2H-1,2,3-triazol-2-yl)phenyl]-carbonyl}-6-methyl-piperidin-3-yl]oxy}furo[3,4-c]pyridin-1(3H)-one] | 15 nM | 8.29 µM |
| C[C@@H]1CC[C@@H](Oc2nccc3c2COC3=O)CN1C(=O)c1cscc1-n1nccn1 [Example 30, 4-{[(3R,6R)-6-methyl-1-{[4-(2H-1,2,3-triazol-2-yl)-thiophen-3-yl]car-bonyl}piperidin-3-yl]oxy}furo[3,4-c]pyridin-1(3H)-one] | 26 nM | 10 µM |
| C[C@@H]1CC[C@@H](Nc2nccc3c2C(=O)OC3(C)C)CN1C(=O)c1ccsc1-n1nccn1 [Example 43, 1,1-dimethyl-4-{[(3R,6R)-6-methyl-1-{[2-(2H-1,2,3-triazol-2-yl)thiophen-3-yl]-carbonyl}piperidin-3-yl]amino}-furo[3,4-c]pyridin-3(1H)-one] | 19 nM | 10 µM |
| C[C@@H]1CC[C@@H](N(C)c2nccc3c2C(=O)OC3(C)C)CN1C(=O)c1ccccc1-n1ncnn1 [Example 45, 1,1-Dimethyl-4-{methyl[(3R,6R)-6-methyl-1-{[2-(2H-tetrazol-2-yl)phenyl]carbonyl}piperidin-3-yl]amino}furo[3,4-c]pyridin-3(1H)-one] | 127 nM | 9.33 µM |
| Cc1nc(-c2cccc(F)c2C(=O)N2C[C@H](Oc3nccc4c3C(=O)OC4(C)C)CC[C@H]2C)no1 [Example 13, 4-{[(3R,6R)-1-{[2-fluoro-6-(5-methyl-1,2,4-oxadiazol-3-yl)phenyl]carbonyl}-6-methylpiperidin-3-yl]oxy}-1,1-dimethylfuro[3,4-c]pyridin-3(1H)-one] | 65 nM | ≥ 10 µM |
| C[C@@H]1CC[C@@H](Oc2nccc3c2COC3=O)CN1C(=O)c1ccccc1C1(C#N)CC1 [Example 31, 1-[2-({(2R,5R)-2-methyl-5-[(1-oxo-1,3-dihydrofuro[3,4-c]pyridin-4-yl)oxy]-piperidin-1-yl}-carbonyl)-phenyl]cyclo-propane-carbonitrile] | 12 nM | 1.78 µM |
| C[C@@H]1CC[C@@H](Oc2nccc3c2C(=O)OC3(C)C)CN1C(=O)c1c(F)cccc1-n1nccn1 [Example 6, 4-(((3R,6R)-1-(2-fluoro-6-(2H-1,2,3-triazol-2-yl)benzoyl)-6-methylpiperidin-3-yl)oxy)-1,1-dimethylfuro[3,4-c]pyridin-3(1H)-one] | 13 nM | 2.71 µM |
| C[C@@H]1CC[C@@H](Oc2nccc3c2C(=O)OC3(C)C)CN1C(=O)c1ccsc1-n1nccn1 [Example 20, 1,1-Dimethyl-4-{[(3R,6R)-6-methyl-1-{[2-(2H-1,2,3-triazol-2-yl)thiophen-3-yl]carbonyl}piperidin-3-yl]oxy}furo[3,4-c]pyridin-3(1H)-one] | 39 nM | 10 µM |
| C[C@@H]1CC[C@@H](Oc2nccc3c2C(=O)OC3(C)C)CN1C(=O)c1ccccc1-c1ncccn1 [Example 22, 1,1-Dimethyl-4-{[(3R,6R)-6-methyl-1-{[2-(pyrimidin-2-yl)phenyl]carbonyl}piperidin-3-yl]oxy}furo[3,4-c]pyridin-3(1H)-one] | 76 nM | 3.26 µM |
| C[C@@H]1CC[C@@H](Oc2nccc3c2C(=O)OC3(C)C)CN1C(=O)c1c(F)cccc1-n1nccn1 [Example 2, 4-{[(3R,6R)-1-{[2-Fluoro-6-(2H-1,2,3-triazol-2-yl)phenyl]carbonyl}-6-methylpiperidin-3-yl]oxy}-1,1-dimethylfuro[3,4-c]pyridin-3(1H)-one] | 44 nM | 10 µM |
| C[C@@H]1CC[C@@H](Oc2nccc3c2C(=O)OC3(C)C)CN1C(=O)c1ccc(F)cc1-n1nccn1 [Example 10, 4-{[(3R,6R)-1-{[4-fluoro-2-(2H-1,2,3-triazol-2-yl)phenyl]carbonyl}-6-methylpiperidin-3-yl]oxy}-1,1-dimethylfuro[3,4-c]pyridin-3(1H)-one] | 59 nM | 10 µM |
